Experimental data reported in patent publication US20200281202A1 (priority 2017, published 2020).

Each molecule was assayed on Phytophthora infestans (assay: microbe, parasite or virus in culture). Conditions: 30 ppm in Rye Agar medium; seven days at 18° C.
Format: cell-based
With `Cn1nc(C(F)(F)F)cc1OCC(=O)N1CCC(c2nc(C3=NOC(c4c(Cl)cccc4Cl)C3)cs2)CC1` (stereo not drawn) [Compound 2] the “control (radial growth) compared to the untreated check” value was 70%. In the case of `O=C(COc1ncc(C(F)(F)F)cc1Br)N1CCC(c2nc(C3=NOC(c4c(F)cccc4F)C3)cs2)CC1` (stereo not drawn) [Compound 53], the “control (radial growth) compared to the untreated check” value was 70%.

Same assay, conditions: Phytophthora infestans, 168 h, read-out: control (radial growth) compared to the untreated check
For `O=C(COc1cc(C(F)(F)F)ccn1)N1CCC(c2nc(C3=NOC(c4c(F)cccc4F)C3)cs2)CC1` (stereo not drawn) [Compound 43], the inhibition of growth at 30 ppm was 70%. `O=C(COc1ncc(C(F)(F)F)cc1Br)N1CCC(c2nc(C3=NOC(c4c(Cl)cc(Cl)cc4Cl)C3)cs2)CC1` (stereo not drawn) [Compound 54, 2-((3-bromo-5-(trifluoromethyl)pyridin-2-yl)oxy)-1-(4-(4-(5-(2,4,6-trichlorophenyl)-4,5-dihydroisoxazol-3-yl)thiazol-2-yl)piperidin-1-yl)ethan-1-one] was tested, and the inhibition of growth at 30 ppm was 70%. `O=C(COc1ncc(C(F)(F)F)cc1Br)N1CCC(c2nc(C3=NOC(c4c(Cl)cccc4Cl)C3)cs2)CC1` (stereo not drawn) [Compound 51, 2-((3-bromo-5-(trifluoromethyl)pyridin-2-yl)oxy)-1-(4-(4-(5-(2,6-dichlorophenyl)-4,5-dihydroisoxazol-3-yl)thiazol-2-yl)piperidin-1-yl)ethan-1-one] was tested, and the inhibition of growth at 30 ppm was 70%. In the case of `Cn1nc(C(F)(F)F)cc1OCC(=O)N1CCC(c2nc(C3=NOC(c4c(Cl)cccc4OS(C)(=O)=O)C3)cs2)CC1` (stereo not drawn) [Compound 4, 3-chloro-2-(3-(2-(1-(2-((1-methyl-3-(trifluoromethyl)-1H-pyrazol-5-yl)oxy)acetyl)piperidin-4-yl)thiazol-4-yl)-4,5-dihydroisoxazol-5-yl)phenyl methanesulfonate], the inhibition of growth at 30 ppm was 70%. Molecule `O=C(COc1ccc(C(F)(F)F)cn1)N1CCC(c2nc(C3=NOC(c4c(Cl)cccc4Cl)C3)cs2)CC1` (stereo not drawn) [Compound 47, 1-(4-(4-(5-(2,6-dichlorophenyl)-4,5-dihydroisoxazol-3-yl)thiazol-2-yl)piperidin-1-yl)-2-((5-(trifluoromethyl)pyridin-2-yl)oxy)ethan-1-one] has an inhibition of growth at 30 ppm of 70%. With `O=C(CNc1ncccc1C(F)(F)F)N1CCC(c2nc(C3=NOC(c4c(Cl)cccc4Cl)C3)cs2)CC1` (stereo not drawn) [Compound 82, 1-(4-(4-(5-(2,6-dichlorophenyl)-4,5-dihydroisoxazol-3-yl)thiazol-2-yl)piperidin-1-yl)-2-((3-(trifluoromethyl)pyridin-2-yl)amino)ethan-1-one] the inhibition of growth at 30 ppm was 70%. `Cc1cnc(OCC(=O)N2CCC(c3nc(C4=NOC(c5c(Cl)cc(Cl)cc5Cl)C4)cs3)CC2)c(C(F)(F)F)c1` (stereo not drawn) [Compound 83, 2-((5-methyl-3-(trifluoromethyl)pyridin-2-yl)oxy)-1-(4-(4-(5-(2,4,6-trichlorophenyl)-4,5-dihydroisoxazol-3-yl)thiazol-2-yl)piperidin-1-yl)ethan-1-one] showed an inhibition of growth at 30 ppm of 70%. With `CS(=O)(=O)Oc1cccc(Cl)c1C1CC(c2csc(C3CCN(C(=O)COc4ccc(C(F)(F)F)cn4)CC3)n2)=NO1` (stereo not drawn) [Compound 48, 3-chloro-2-(3-(2-(1-(2-((5-(trifluoromethyl)pyridin-2-yl)oxy)acetyl)piperidin-4-yl)thiazol-4-yl)-4,5-dihydroisoxazol-5-yl)phenyl methanesulfonate] the inhibition of growth at 30 ppm was 70%. `O=C(CSc1ncccc1C(F)(F)F)N1CCC(c2nc(C3=NOC(c4c(Cl)cc(Cl)cc4Cl)C3)cs2)CC1` (stereo not drawn) [Compound 63] showed an inhibition of growth at 30 ppm of 70%. With `Cn1ccc(OCC(=O)N2CCC(c3nc(C4=NOC(c5c(F)cccc5F)C4)cs3)CC2)n1` (stereo not drawn) [Compound 1, 1-(4-(4-(5-(2,6-difluorophenyl)-4,5-dihydroisoxazol-3-yl)thiazol-2-yl)piperidin-1-yl)-2-((1-methyl-1H-pyrazol-3-yl)oxy)ethan-1-one] the inhibition of growth at 30 ppm was 70%. In the case of `Cc1ccc(C(F)(F)F)c(OCC(=O)N2CCC(c3nc(C4OCc5cccc(OS(C)(=O)=O)c5CO4)cs3)CC2)n1` (stereo not drawn) [Compound 92, 3-(2-(1-(2-((6-methyl-3-(trifluoromethyl)pyridin-2-yl)oxy)acetyl)piperidin-4-yl)thiazol-4-yl)-1,5-dihydrobenzo[e][1,3]dioxepin-6-yl methanesulfonate], the inhibition of growth at 30 ppm was 70%. In the case of `Cn1nc(OCC(=O)N2CCC(c3nc(C4=NOC(c5c(F)cccc5F)C4)cs3)CC2)cc1C(F)(F)F` (stereo not drawn) [Compound 20, 1-(4-(4-(5-(2,6-difluorophenyl)-4,5-dihydroisoxazol-3-yl)thiazol-2-yl)piperidin-1-yl)-2-((1-methyl-5-(trifluoromethyl)-1H-pyrazol-3-yl)oxy) ethan-1-one], the inhibition of growth at 30 ppm was 70%. Work on `Cc1cnc(OCC(=O)N2CCC(c3nc(C4=NOC(c5c(F)cccc5F)C4)cs3)CC2)c(C(F)(F)F)c1` (stereo not drawn) [Compound 88, 1-(4-(4-(5-(2,6-difluorophenyl)-4,5-dihydroisoxazol-3-yl)thiazol-2-yl)piperidin-1-yl)-2-((5-methyl-3-(trifluoromethyl)pyridin-2-yl)oxy)ethan-1-one] yielded an inhibition of growth at 30 ppm of 70%. `Cn1nc(C(F)(F)F)cc1OCC(=O)N1CCC(c2nc(C3=NOC(c4c(F)cccc4F)C3)cs2)CC1` (stereo not drawn) [Compound 3, 1-(4-(4-(5-(2,6-difluorophenyl)-4,5-dihydroisoxazol-3-yl)thiazol-2-yl)piperidin-1-yl)-2-((1-methyl-3-(trifluoromethyl)-1H-pyrazol-5-yl)oxy) ethan-1-one] was tested, and the inhibition of growth at 30 ppm was 70%. Work on `Cc1cnc(OCC(=O)N2CCC(c3nc(C4=NOC(c5c(Cl)cccc5OS(C)(=O)=O)C4)cs3)CC2)c(C(F)(F)F)c1` (stereo not drawn) [Compound 85, 3-chloro-2-(3-(2-(1-(2-((5-methyl-3-(trifluoromethyl)pyridin-2-yl)oxy)acetyl)piperidin-4-yl)thiazol-4-yl)-4,5-dihydroisoxazol-5-yl)phenyl methanesulfonate] yielded an inhibition of growth at 30 ppm of 70%. Molecule `CS(=O)(=O)Oc1cccc(Cl)c1C1CC(c2csc(C3CCN(C(=O)COc4cccc(C(F)(F)F)n4)CC3)n2)=NO1` (stereo not drawn) [Compound 71, 3-chloro-2-(3-(2-(1-(2-((6-(trifluoromethyl)pyridin-2-yl)oxy)acetyl)piperidin-4-yl)thiazol-4-yl)-4,5-dihydroisoxazol-5-yl)phenyl methanesulfonate] has an inhibition of growth at 30 ppm of 70%. For `O=C(COc1cccc(C(F)(F)F)n1)N1CCC(c2nc(C3=NOC(c4c(F)cccc4F)C3)cs2)CC1` (stereo not drawn) [Compound 72, 1-(4-(4-(5-(2,6-difluorophenyl)-4,5-dihydroisoxazol-3-yl)thiazol-2-yl)piperidin-1-yl)-2-((6-(trifluoromethyl)pyridin-2-yl)oxy)ethan-1-one], the inhibition of growth at 30 ppm was 70%. In the case of `CN(C)C(N(CC(=O)N1CCC(c2nc(C3=NOC(c4c(F)cccc4F)C3)cs2)CC1)c1ccc(C(F)(F)F)cn1)=[N+](C)C` (stereo not drawn) [Compound 69], the inhibition of growth at 30 ppm was 70%. `Cn1ccc(OCC(=O)N2CCC(c3nc(C4=NOC(c5c(Cl)cccc5OS(C)(=O)=O)C4)cs3)CC2)n1` (stereo not drawn) [Compound 5, 3-chloro-2-(3-(2-(1-(2-((1-methyl-1H-pyrazol-3-yl)oxy)acetyl)piperidin-4-yl)thiazol-4-yl)-4,5-dihydroisoxazol-5-yl)phenyl methanesulfonate] showed an inhibition of growth at 30 ppm of 70%. In the case of `Cc1cnc(OCC(=O)N2CCC(c3nc(C4=NOC(c5c(Cl)cccc5Cl)C4)cs3)CC2)c(C(F)(F)F)c1` (stereo not drawn) [Compound 84, 1-(4-(4-(5-(2,6-dichlorophenyl)-4,5-dihydroisoxazol-3-yl)thiazol-2-yl)piperidin-1-yl)-2-((5-methyl-3-(trifluoromethyl)pyridin-2-yl)oxy)ethan-1-one], the inhibition of growth at 30 ppm was 70%. With `Cn1nc(OCC(=O)N2CCC(c3nc(C4=NOC(c5c(F)cccc5F)C4)cs3)CC2)cc1C(F)F` (stereo not drawn) [Compound 9] the inhibition of growth at 30 ppm was 70%. `O=C(COc1cccc(C(F)(F)F)n1)N1CCC(c2nc(C3=NOC(c4c(Cl)cccc4Cl)C3)cs2)CC1` (stereo not drawn) [Compound 70, 1-(4-(4-(5-(2,6-dichlorophenyl)-4,5-dihydroisoxazol-3-yl)thiazol-2-yl)piperidin-1-yl)-2-((6-(trifluoromethyl)pyridin-2-yl)oxy)ethan-1-one] was tested, and the inhibition of growth at 30 ppm was 70%. `O=C(COc1ncccc1C(F)F)N1CCC(c2nc(C3=NOC(c4c(Cl)cccc4Cl)C3)cs2)CC1` (stereo not drawn) [Compound 90] was tested, and the inhibition of growth at 30 ppm was 70%. `O=C(COc1ncccc1C(F)(F)F)N1CCC(c2nc(C3OCc4ccccc4CO3)cs2)CC1` [Compound 59, 1-(4-(4-(1,5-dihydrobenzo[e][1,3]dioxepin-3-yl)thiazol-2-yl)piperidin-1-yl)-2-((3-(trifluoromethyl)pyridin-2-yl)oxy)ethan-1-one] was tested, and the inhibition of growth at 30 ppm was 70%. In the case of `CS(=O)(=O)Oc1cccc(Cl)c1C1CC(c2csc(C3CCN(C(=O)COc4cc(C(F)(F)F)ccn4)CC3)n2)=NO1` (stereo not drawn) [Compound 46, 3-chloro-2-(3-(2-(1-(2-((4-(trifluoromethyl)pyridin-2-yl)oxy)acetyl)piperidin-4-yl)thiazol-4-yl)-4,5-dihydroisoxazol-5-yl)phenyl methanesulfonate], the inhibition of growth at 30 ppm was 70%. `CS(=O)(=O)Oc1cccc2c1COC(c1csc(C3CCN(C(=O)COc4ncccc4C(F)(F)F)CC3)n1)OC2` (stereo not drawn) [Compound 91, 3-(2-(1-(2-((3-(trifluoromethyl)pyridin-2-yl)oxy)acetyl)piperidin-4-yl)thiazol-4-yl)-1,5-dihydrobenzo[e][1,3]dioxepin-6-yl methanesulfonate] was tested, and the inhibition of growth at 30 ppm was 70%. With `CS(=O)(=O)Oc1cccc(Cl)c1C1CC(c2csc(C3CCN(C(=O)COc4ncccc4C(F)F)CC3)n2)=NO1` (stereo not drawn) [Compound 89, 3-chloro-2-(3-(2-(1-(2-((3-(difluoromethyl)pyridin-2-yl)oxy)acetyl)piperidin-4-yl)thiazol-4-yl)-4,5-dihydroisoxazol-5-yl)phenyl methanesulfonate] the inhibition of growth at 30 ppm was 70%. `O=C(COc1ccc(C(F)(F)F)cn1)N1CCC(c2nc(C3=NOC(c4c(F)cccc4F)C3)cs2)CC1` (stereo not drawn) [Compound 49, 1-(4-(4-(5-(2,6-difluorophenyl)-4,5-dihydroisoxazol-3-yl)thiazol-2-yl)piperidin-1-yl)-2-((5-(trifluoromethyl)pyridin-2-yl)oxy)ethan-1-one] gave an inhibition of growth at 30 ppm of 70%.
